Results: US20050287552A1, “Carbohydrate encapsulated nanoparticle based affinity mass spectrometry” (Academia Sinica, Office of Public Affairs (Technology …, priority 2003, published 2005)

Target: Con A (Canavalia ensiformis, UniProt P02866)
Assay: SPR competition binding assay for Con A
Conditions: Con A tetramer 0.5 uM, pre-incubated 1 hr with inhibitor
Description: A self-assembled monolayer composed of 20% mannopyranoside ligand and 80% thiobutanol mixture was generated on a J1 biosensor chip (See FIG. 9). In particular, immobilization of ligand to the biosensor chip was preformed in BIAcore 3000 instrument. A mixture of 4-mercapto-1-butanol (Ligand A) and 5-thiopentyl α-D-mannopyranoside (Ligand B) in deionized water was injected into a flow cell with the J1 biochip.
Next, the binding affinity of Con A for this chip was determined by titration with a series of Con A concentrations to generate multiple SPR curves. In particular, Con A was dissolved in sample buffer (1.0 mL, 20 mM HEPES, pH 7.0, 90 mM NaCl with 1 mM MnCl2 and CaCl2) and then filtered by a syringe. Con A solution (50 μL) was injected over immobilized biosensor surface and allowed 260 seconds for dissociation and then followed by regeneration buffer. A set of SPR response curves was obtained after different concentrations of Con A solution were applied (See FIG. 10A, showing curves for 6, 3, 1.5, 0.38, 0.19 uM of Con A (top to bottom)).
Competition assays were then conducted. […] The mixture (50 uL) was then injected and the flow rate was controlled at 60 uL/minute. The equilibrium binding response values was collected at equilibrium binding portion of the curve (260 seconds post-injection). […]

Q: Which Ki does the source give for α-D-methyl-mannopyrannoside [αMeMan] here?
A: 200 µM
